# Measurements published in article PMC10973839, “CHF6297: a novel potent and selective p38 MAPK inhibitor with robust anti-inflammatory activity and suitable for inhaled pulmonary administration as dry powder” (Frontiers in Pharmacology, 2024).
# Where two headings read alike, the source gives them in different places.
# Key:
# human p38δ = target: T1, human p38δ (Homo sapiens, UniProt O15264); assay: AlphaScreen kinase activity assay, human p38δ; type: biochemical
# T1 construct: GST; purchased Invitrogen
# T1 sequence (O15264 1-365): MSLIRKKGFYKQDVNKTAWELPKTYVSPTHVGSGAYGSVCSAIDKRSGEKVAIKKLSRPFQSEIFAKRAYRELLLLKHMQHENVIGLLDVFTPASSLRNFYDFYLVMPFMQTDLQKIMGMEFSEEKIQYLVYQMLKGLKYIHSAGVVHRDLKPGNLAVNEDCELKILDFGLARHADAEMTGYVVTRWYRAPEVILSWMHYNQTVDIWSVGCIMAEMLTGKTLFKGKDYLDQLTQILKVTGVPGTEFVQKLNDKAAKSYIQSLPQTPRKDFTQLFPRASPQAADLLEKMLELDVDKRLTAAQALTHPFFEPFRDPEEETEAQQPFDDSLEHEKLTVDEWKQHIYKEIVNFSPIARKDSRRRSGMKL
# Method: The inhibitory activity of CHF6297 was determined using an AlphaScreen® (PerkinElmer)-based kinase activity assay as previously described ([Armani et al., 2022]). Kinase reactions consisted of 25 mM 4-(2-hydroxyethyl)-1-piperazine ethanesulfonic acid (HEPES), pH 7.5; 10 mM MgCl2; 100 μM Na3VO4; 2 mM DTT; 0.05 mg/mL Tween^TM 20; 100 pM solution of p38α, p38β, p38δ, or p38γ (Invitrogen); 1% DMSO; and 0.3 μg/mL ATF-2 fusion protein (New England Biolabs). Compounds were incubated under these conditions for 2 h, at 25°C, prior to the initiation of kinase activity by the addition of 250 μM ATP. […] Detection was performed by measuring luminescence following the addition of AlphaScreen donor beads (PerkinElmer, 6765300) and Protein A AlphaScreen acceptor beads (PerkinElmer, 6760137), both at a final concentration of 20 μg/mL. IC50 values were determined from concentration–response curves. […]
# CHF6297 was tested in biochemical enzymatic assays to determine its potency as an inhibitor of human p38α (MAPK14) and of the other human p38 isoforms, p38β (MAPK11), p38γ ([…]), and p38δ ([…]) ([Armani et al., 2022]). Activity in the primary screening assay was determined using AlphaScreen technology, in which a peptide (ATF2) is phosphorylated by the appropriate GST-tagged p38 protein isoform in the presence of CHF6297 at concentrations from semi-logarithmic dilutions. […]
# rat p38α = rat p38α (Rattus norvegicus, UniProt P70618); assay: AlphaScreen kinase activity assay, rat p38α; type: biochemical
# human p38γ = target: T2, human p38γ (Homo sapiens, UniProt P53778); assay: KINOMEscan competition binding assay (DiscoverX), p38γ; details: read-out: Kd (mean ± s.d.)
# T2 construct: GST; purchased Invitrogen
# T2 sequence (P53778 1-367): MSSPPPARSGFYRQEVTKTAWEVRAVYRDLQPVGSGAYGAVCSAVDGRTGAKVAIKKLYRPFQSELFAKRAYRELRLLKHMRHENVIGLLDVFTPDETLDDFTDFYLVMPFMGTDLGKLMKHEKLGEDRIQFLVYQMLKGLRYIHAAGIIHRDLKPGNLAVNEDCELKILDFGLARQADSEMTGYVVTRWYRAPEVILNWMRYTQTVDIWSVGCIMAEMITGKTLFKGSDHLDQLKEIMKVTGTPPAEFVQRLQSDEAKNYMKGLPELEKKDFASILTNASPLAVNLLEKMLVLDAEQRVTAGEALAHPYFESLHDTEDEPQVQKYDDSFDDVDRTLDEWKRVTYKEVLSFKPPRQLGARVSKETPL
# From the text: The KINOMEscan® platform (DiscoverX) was used, which uses a novel and proprietary active site-directed competition binding assay to quantitatively measure the interactions between human p38 isoforms and the target compound.
# [1] = Inhalation pharmacokinetics in rats; type: in vivo, male Wistar rats; details: for Lung Cmax: 30-min nose-only inhalation; for Plasma Tmax: IAD: immediately after dosing; for Lung Tmax: IAD: immediately after dosing (5 min after end of exposure); for half-life: lung, read-out: Lung t1/2 (converted); for Cmax / AUC(0-t): plasma; for AUC(0-t): read-out: Plasma AUClast
# Method: Inhalation pharmacokinetics (PK) of CHF6297 as micronised dry powder blended with lactose 20% w/w was investigated in male Wistar rats at 2 dose levels (0.1 and 1 mg/kg) using the nose-only inhalation delivery system (Figure 8). For each PK study, 21 rats were placed in suitable plastic restrainers and connected to the inhalation tower. Inhalation system parameters were set to achieve a nominal dose of 0.1 mg/kg and 1 mg/kg in 30 min of exposure. The particle size and actual dose are given in Supplementary Material (Table 2). At the end of the inhalation period, the animals were returned to their cages. […] Then, lung samples were immediately excised, externally washed with cold saline, accurately weighed, homogenized using a temperature-controlled Precellys homogenizer (Bertin Technologies, France), and stored at −80 °C until analysis.
# Plasma and lung samples were analyzed by using an HPLC-MS/MS system, consisting of a 4000 QTRAP mass spectrometer (AB Sciex LLC, Framingham, MA, United States) with an electrospray ionization (ESI) source, coupled to an Agilent 1100 HPLC (Agilent Technologies, Santa Clara, CA, United States). Analyte separation was performed using a Gemini C18 column (Phenomenex Inc., Torrance, CA, United States) and water with 0.1% v/v AcOH in the gradient with acetonitrile with 0.1% v/v AcOH as eluents. Sample preparation was performed by protein precipitation using preassembled filtration devices (Mini-UniPrep Syringeless Filters, 0.45 µm PTFE, Whatman, GE Healthcare, Buckinghamshire, United Kingdom). Aliquots of 50 μL of the sample (plasma or homogenate) were transferred to the bottom part of the device, spiked with 10 μL of the appropriate internal standard solution, and 150 μL of acetonitrile was added. The calibration and quality control samples were prepared by adding 10 µL of the CHF6297 working standard solution in acetonitrile to 50 µL of the blank matrix. After vortex mixing, the obtained mixture was filtered by manual compression of the device, and the filtered solution was diluted with 100 μL of water. The Mini-UniPrep devices were directly placed in the autosampler rack of the HPLC system. Pharmacokinetic evaluation and parameter determination (Cmax, Tmax, AUClast, and t1/2) were performed with Phoenix 64 software (Certara, New Jersey, United States) using non-compartmental analysis. Since the actual dose was within ±5% of the nominal one, the nominal dose was used for PK calculation.
# [2] = n = 3, read-out: IC50 (mean ± s.d.)
# [3] = male, Wistar, rat, inhaled or intranasal, 0.1 mg/kg
# [4] = male, Wistar, rat, inhaled or intranasal, 1.0 mg/kg
# rat p38α, sequence (P70618 whole entry): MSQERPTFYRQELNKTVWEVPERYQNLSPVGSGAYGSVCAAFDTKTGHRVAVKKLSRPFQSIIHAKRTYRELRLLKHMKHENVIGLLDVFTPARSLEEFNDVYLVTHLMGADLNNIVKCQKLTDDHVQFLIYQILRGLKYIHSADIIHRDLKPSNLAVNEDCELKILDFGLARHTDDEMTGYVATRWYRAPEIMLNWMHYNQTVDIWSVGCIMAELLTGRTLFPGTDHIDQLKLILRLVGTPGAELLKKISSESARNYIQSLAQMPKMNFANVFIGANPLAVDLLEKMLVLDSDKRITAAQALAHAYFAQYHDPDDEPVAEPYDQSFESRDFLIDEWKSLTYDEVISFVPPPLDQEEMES
structure (smiles),measurement,setting,value
C[C@H]1CCCCN1c1nnc2ccc(O[C@@H]3CC[C@H](NC(=O)Nc4cc(C(C)(C)C)nn4-c4cnn(CCN(C)C)c4)c4ccccc43)cn12 [CHF6297],IC50 fold-difference vs. human p38α,human p38δ,">7,000"
same,IC50,human p38δ; [2],> 1000 nM
same,IC50 fold-difference vs. human p38α,rat p38α,3.5
same,IC50,rat p38α; [2],0.5 ± 0.18 nM
same,Kd,human p38γ,> 1000 nM
same,Lung AUClast,[1]; 0.1 mg/kg,"42,097 h*ng/g"
same,Lung Cmax,[1]; 0.1 mg/kg,"7,187 ng/g"
same,Plasma Tmax,[1]; 0.1 mg/kg,IAD
same,Lung Tmax,[1]; 0.1 mg/kg,IAD
same,Lung Cmax,[1]; 1.0 mg/kg,"54,000 ng/g"
same,Plasma Tmax,[1]; 1.0 mg/kg,IAD
same,Lung Tmax,[1]; 1.0 mg/kg,IAD
same,half-life,[1]; [3],612 min
same,half-life,[1]; [4],612 min
same,half-life,"[1]; male, Wistar, rat, inhaled, 0.1 mg/kg",600 min
same,half-life,"[1]; male, Wistar, rat, inhaled, 1.0 mg/kg",600 min
same,Kp,"[1]; male, Wistar, rat, lung/plasma, inhaled, at the two dose levels (0.1 and 1 mg/kg), read-out: lung/plasma ratio (AUClast lung / AUClast plasma)",~6000
same,Cmax,[1]; [3],2.77 ng/mL
same,AUC(0-t),[1]; [3],7.32 ng·h/mL
same,Cmax,[1]; [4],20.6 ng/mL
same,AUC(0-t),[1]; [4],60.1 ng·h/mL
